What is called IC50 is the concentration that gives 50% inhibition. Low readings indicate greater potency in that assay, high ones weaker potency in that assay.

Molecules are shown by their SMILES.

For this test, the target named is Arachidonate 5-lipoxygenase (Rattus norvegicus). Kind of test: Ability to inhibit 5-lipoxygenase in rat.

Compound `CN1C[C@@H](c2cccc(OCc3ccc4ccccc4n3)c2)OC1=O` gave an IC50 of 19.6 µM.

(Values after BindingDB's records for doi:10.1021/jm00394a026 (Wyeth Laboratories, 1987).)
